How the values were obtained:
[1] = target: T1, interaction of Aβ with Drp1 (Homo sapiens, UniProt O00429); test: Co-immunoprecipitation of Aβ and Drp1 in SHSY5Y cells; type: cell-based
T1 construct: SHSY5Y cells incubated with Aβ peptide 1-42 (20 uM final concentration); Anaspec (Aβ 1-42 peptide); host or cells: SHSY5Y human neuroblastoma cells
Protocol: Co-immunoprecipitation and immunoblotting analysis using DDQ treated SHSY5Y cells+Aβ. To determine whether DDQ reduces the interaction of Aβ with Drp1 in Aβ incubated cells, the inventors performed co-immunoprecipitation analysis using the Drp1 antibody, and immunoblotting analysis using Aβ recognizing 6E10 antibody and protein lysates of DDQ pre-treated, DDQ post-treated and Aβ incubated cells.
SHSY5Y cells, mutant APPSwe/Ind cells and co-immunoprecipitation analysis. SHSY5Y cells: To determine whether Aβ interact with Drp1, the inventors used protein lysates from Aβ incubated (DDQ pre-treated, post-treated and untreated) SHSY5Y cells.
The inventors performed co-immunoprecipitation (co-IP) assays using the Dynabeads Kit for Immunoprecipitation (Invitrogen). Briefly, 50 μL of Dynabeads containing protein G was incubated with 10 μg 6E10 or 10 μg of the Drp1 antibodies (both mono- and polyclonal antibodies; Santa Cruz), with rotation, for 1 h at room temperature. The inventors used all the reagents and buffers provided in the kit. Details of antibodies used for co-IP and western blotting are given Table 5. The Dynabeads-Aβ complex was washed three times with a washing buffer and was then incubated overnight with 400 μg of protein at 4° C., with rotation. […]

SHSY5Y cells [2] = test: Immunofluorescence analysis of Drp1, synaptophysin and PSD95; type: cell-based, Human
Protocol: Immunofluorescence analysis of Drp1, synaptophysin and PSD95. To determine the effect of Aβ and DDQ on Drp1, synaptophysin and PSD95 levels and localizations, immunofluorescence analysis was performed in cells treated as shown in FIG. 7.
Immunofluorescence analysis. To study immune-reactivity of proteins of interest, cells were grown on coverslips using regular cell culture medium and treated as shown in strategy FIG. 3 and performed immunofluorescence analysis using the antibodies in these treated and untreated cells as described by Manzcak et al. Cells were washed with warm PBS, fixed in freshly prepared 4% paraformaldehyde in PBS for 10 min, and then washed with PBS and permeabilized with 0.1% Triton-X100 in PBS. They were blocked with 1% blocking solution (Invitrogen) for 1 hr at room temperature. All neurons were incubated overnight with primary antibodies. The neurons were incubated with appropriate secondary antibodies. The cells were washed neurons 3 times with PBS, and slides were mounted. Photographs were taken with a multiphoton laser scanning microscope system (ZeissMeta LSM510). To quantify the immunoreactivity of proteins of interest, for each treatment 10-15 photographs were taken at ×20 magnification.

SHSY5Y cells [3] = test: Transmission electron microscopy, mitochondrial number and length; type: cell-based, Human
From the text: Transmission electron microscopy. To determine the effects of DDQ on mitochondrial number and morphology, and any rescual effects of DDQ on mitochondria in the untreated and Aβ treated cells, the inventors used TEM on untreated, DDQ, Aβ+DDQ and DDQ+Aβ, treated SHSY5Y cells.
Transmission electron microscopy. To determine the effects of DDQ on the numbers of mitochondria and any rescue effects of DDQ on mitochondria in the mutant SHSY5Y neurons, the inventors used TEM on untreated and treated SHSY5Y cells (as shown in FIG. 3). [Batches 1-5]. All SHSY5Y cells batches 1-5 were fixed in […] sodium cacodylate (pH 7.2), 2.5% glutaraldehyde, 1.6% paraformaldehyde, 0.064% picric acid and 0.1% ruthenium red. They were gently washed and post-fixed for 1 h in 1% osmium tetroxide plus […] potassium ferricyanide, in 100 mm sodium cacodylate, pH 7.2. After a thorough rinsing in water, the SHSY5Y cells were dehydrated, infiltrated overnight in 1:1 acetone:Epon 812 and infiltrated for 1 h with 100% Epon 812 resin. They were then embedded in the resin. After polymerization, 60 to 80 nm thin sections were cut on a Reichert ultramicrotome and stained for 5 min in lead citrate. They were rinsed and post-stained for 30 min in uranyl acetate and then were rinsed again and dried. Electron microscopy was performed at 60 kV on a Philips Morgagne TEM equipped with a CCD, and images were collected at magnifications of ×1000-37 000. The numbers of mitochondria were counted in the SHSY5Y cells batches 1-5, and statistical significance was determined, using one-way ANOVA.

GTPase-Drp1 = target: T2, GTPase-Drp1 (Homo sapiens, UniProt O00429); test: GTPase-Drp1 activity from Drp1 IP elutes; type: cell-based
T2 construct: endogenous in cells; host or cells: SHSY5Y human neuroblastoma cells
Protocol: GTPase-Drp1 activity: To determine whether Aβ affects GTPase-Drp1 activity in cells that treated with Aβ incubation, the inventors measured GTPase-Drp1 activity from Drp1 IP elutes of all cell treatments.

[4] = Aβ + DDQ (Aβ1-42 6 hrs, then DDQ 24 hrs) vs Aβ treated cells
[5] = DDQ 250 nM 24 hrs vs untreated cells
[6] = DDQ + Aβ (DDQ 24 hrs, then Aβ1-42 6 hrs) vs Aβ treated cells
[7] = Aβ + DDQ (Aβ1-42 20 μM 6 hrs, then DDQ 24 hrs) vs untreated cells
[8] = DDQ + Aβ (DDQ 24 hrs, then Aβ1-42 6 hrs) vs untreated cells
[9] = DDQ post-treated (Aβ + DDQ) vs cells treated with Aβ alone
[10] = DDQ-pre treated (DDQ + Aβ) vs cells treated with Aβ alone

T2 sequence (O00429 whole entry): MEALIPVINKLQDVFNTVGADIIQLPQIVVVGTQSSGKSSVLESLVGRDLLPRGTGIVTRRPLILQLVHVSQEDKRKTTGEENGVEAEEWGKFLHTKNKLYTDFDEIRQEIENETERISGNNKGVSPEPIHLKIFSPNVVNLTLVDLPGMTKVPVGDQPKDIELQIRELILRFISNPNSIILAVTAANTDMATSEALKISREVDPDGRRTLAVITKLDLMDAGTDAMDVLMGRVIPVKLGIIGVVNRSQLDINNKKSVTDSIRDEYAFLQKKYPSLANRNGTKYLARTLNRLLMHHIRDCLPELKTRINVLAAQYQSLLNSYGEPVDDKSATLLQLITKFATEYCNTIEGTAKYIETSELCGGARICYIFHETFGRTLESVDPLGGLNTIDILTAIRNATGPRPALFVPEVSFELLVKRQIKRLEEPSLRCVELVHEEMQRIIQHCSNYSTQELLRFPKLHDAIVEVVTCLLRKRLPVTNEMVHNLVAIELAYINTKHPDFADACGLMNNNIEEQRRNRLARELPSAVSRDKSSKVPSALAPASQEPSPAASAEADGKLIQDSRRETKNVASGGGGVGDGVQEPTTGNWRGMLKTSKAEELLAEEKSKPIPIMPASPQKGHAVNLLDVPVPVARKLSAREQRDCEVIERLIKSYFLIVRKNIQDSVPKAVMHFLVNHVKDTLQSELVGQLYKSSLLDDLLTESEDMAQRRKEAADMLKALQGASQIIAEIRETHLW
T1 sequence (O00429 whole entry): as above

## CCOP(=O)(OCC)C(NCCc1ccc(O)c(O)c1)c1ccnc2ccccc12 (centres unmarked) [DDQ, diethyl(3,4-dihydroxyphenethylamine)(quinolin-4-yl)methylphosphonate]
[1]; DDQ post-treated (Aβ + DDQ) vs Aβ incubated cells
  interaction between Aβ and Drp1: reduced interaction
[1]; DDQ pre-treated (DDQ + Aβ) vs Aβ incubated cells
  interaction between Aβ and Drp1: reduced interaction
SHSY5Y cells [2]; [4]
  Drp1 levels (immunofluorescence): Significantly reduced levels
  PSD95 levels (immunofluorescence): increased
  synaptophysin levels (immunofluorescence): increased
SHSY5Y cells [2]; [5]
  Drp1 levels (immunofluorescence): decreased Drp1 levels were found in DDQ treated cells relative to untreated cells, but this was not significant
SHSY5Y cells [2]; [6]
  Drp1 levels (immunofluorescence): Significantly reduced levels
  PSD95 levels (immunofluorescence): increased
  synaptophysin levels (immunofluorescence): increased
SHSY5Y cells [3]; [7]
  mitochondrial length: not significantly changed
  number of mitochondria: approximately equal number
SHSY5Y cells [3]; [5]
  mitochondrial length: significantly increased
  number of mitochondria: reduced
SHSY5Y cells [3]; [8]
  mitochondrial length: not significantly changed
  number of mitochondria: approximately equal number
SHSY5Y cells [3]; [9]
  mitochondrial length: significantly increased
  number of mitochondria: significantly reduced
SHSY5Y cells [3]; [10]
  mitochondrial length: significantly increased
  number of mitochondria: significantly reduced
GTPase-Drp1; [7]
  GTPase-Drp1 activity: Significantly increased
GTPase-Drp1; Aβ + DDQ (Aβ1-42 6 hrs, then DDQ 24 hrs) vs cells incubated with Aβ
  GTPase-Drp1 activity: reduced
GTPase-Drp1; [5]
  GTPase-Drp1 activity: decreased levels
GTPase-Drp1; DDQ + Aβ (DDQ 24 hrs, then Aβ1-42 6 hrs) vs cells incubated with Aβ
  GTPase-Drp1 activity: reduced

From patent US12208108B2, “Drug targets of delayed aging and human brain diseases” (Texas Tech University System, priority 2016, dated 2025)
